Results on 9 molecules are retold here after PubChem BioAssay AID248 (DTP/NCI, 2004).

Values joined by “and” are separate entries in the source; they are usually repeats but may differ in a detail not shown here. Identical values can stand only once. Inconclusive results and toxic doses are left out.

This assay relates to L1210 leukemia ip in BDF1 mice, survival T/C. Briefly: NCI In Vivo Anticancer Drug Screen. Data for tumor model L1210 Leukemia (intraperitoneal) in B6D2F1 (BDF1) mice. The following applies: higher = longer survival. An outline of the steps: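 Transplanted-tumor mice were given test agent; controls received vehicle only. Survival readings from the two groups were divided (treated over control).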

The mark [1] stands for this setting: endpoint: mean survival time, dose: 100.0 mg/kg/injection, schedule: Q04DX002 (ip), vehicle: Klucel (hydroxypropylcellulose) (HPC).
The mark [2] stands for this setting: endpoint: mean survival time, dose: 200.0 mg/kg/injection, schedule: Q04DX002 (ip), vehicle: Klucel (hydroxypropylcellulose) (HPC).
Setting [3] is: endpoint: mean survival time, dose: 400.0 mg/kg/injection, schedule: Q04DX002 (ip), vehicle: Klucel (hydroxypropylcellulose) (HPC).

Regarding `NC(=O)N(CCCl)N=O`, the T/C is, setting by setting: (endpoint: mean survival time, dose: 0.06 mg/kg/injection, schedule: Q#A X Z (oral), vehicle: saline) 123 % of control; (endpoint: mean survival time, dose: 0.12 mg/kg/injection, schedule: Q01DX010 (iv), vehicle: saline) 98 % of control; (endpoint: mean survival time, dose: 0.13 mg/kg/injection, schedule: Q01DX Z (oral), vehicle: saline) 118 % of control; (endpoint: mean survival time, dose: 0.19 mg/kg/injection, schedule: Q03DX Z (oral), vehicle: saline) 112 % of control; (endpoint: mean survival time, dose: 0.2 mg/kg/injection, schedule: Q01DX Z (sc), vehicle: methylcellulose (MC)) 101 % of control; (endpoint: mean survival time, dose: 0.25 mg/kg/injection, schedule: Q01DX010 (iv), vehicle: saline) 118 % of control. The T/C is, setting by setting: (endpoint: mean survival time, dose: 0.25 mg/kg/injection, schedule: Q01DX Z (oral), vehicle: saline) 182 % of control; (endpoint: mean survival time, dose: 0.25 mg/kg/injection, schedule: Q#A X Z (oral), vehicle: saline) 255 % of control; (endpoint: mean survival time, dose: 0.38 mg/kg/injection, schedule: Q03DX Z (oral), vehicle: saline) 121 % of control; (endpoint: mean survival time, dose: 0.4 mg/kg/injection, schedule: Q01DX Z (ip), vehicle: carboxymethylcellulose (CMC)) 157 % of control and 201 % of control; (endpoint: mean survival time, dose: 0.4 mg/kg/injection, schedule: Q01DX Z (ip), vehicle: methylcellulose (MC)) 151 % of control; (endpoint: mean survival time, dose: 0.4 mg/kg/injection, schedule: Q01DX Z (sc), vehicle: methylcellulose (MC)) 98 % of control and 101 % of control. Also, the T/C reads like this: (endpoint: mean survival time, dose: 0.44 mg/kg/injection, schedule: Q07DX Z (oral), vehicle: saline) 105 % of control; (endpoint: mean survival time, dose: 0.5 mg/kg/injection, schedule: Q01DX009 (ip), vehicle: saline) 159 % of control and 163 % of control and 176 % of control; (endpoint: mean survival time, dose: 0.5 mg/kg/injection, schedule: Q01DX Z (oral), vehicle: saline) 266 % of control; (endpoint: mean survival time, dose: 0.6 mg/kg/injection, schedule: Q01DX Z (ip), vehicle: carboxymethylcellulose (CMC)) 170 % of control and 197 % of control; (endpoint: mean survival time, dose: 0.6 mg/kg/injection, schedule: Q01DX Z (ip), vehicle: methylcellulose (MC)) 166 % of control and 171 % of control; (endpoint: mean survival time, dose: 0.6 mg/kg/injection, schedule: Q01DX Z (sc), vehicle: methylcellulose (MC)) 98 % of control and 101 % of control. The T/C (endpoint: mean survival time, dose: 0.88 mg/kg/injection, schedule: Q07DX Z (oral), vehicle: saline) was 124 % of control; the T/C (endpoint: mean survival time, dose: 0.9 mg/kg/injection, schedule: Q01DX Z (ip), vehicle: carboxymethylcellulose (CMC)) is 205 % of control and 257 % of control; the T/C (endpoint: mean survival time, dose: 0.9 mg/kg/injection, schedule: Q01DX Z (ip), vehicle: methylcellulose (MC)) is 181 % of control and 250 % of control; the T/C (endpoint: mean survival time, dose: 0.9 mg/kg/injection, schedule: Q01DX Z (oral), vehicle: carboxymethylcellulose (CMC)) was 117 % of control; the T/C (endpoint: mean survival time, dose: 0.9 mg/kg/injection, schedule: Q01DX Z (sc), vehicle: methylcellulose (MC)) is 98 % of control and 101 % of control; the T/C (endpoint: mean survival time, dose: 1.0 mg/kg/injection, schedule: Q01DX009 (ip), vehicle: saline) is 202 % of control and 222 % of control and 253 % of control. Further, the T/C is 215 % of control (endpoint: mean survival time, dose: 1.0 mg/kg/injection, schedule: Q01DX010 (iv), vehicle: saline); 176 % of control and 227 % of control (endpoint: mean survival time, dose: 1.35 mg/kg/injection, schedule: Q01DX Z (ip), vehicle: carboxymethylcellulose (CMC)); 234 % of control (endpoint: mean survival time, dose: 1.5 mg/kg/injection, schedule: Q03DX Z (oral), vehicle: saline); 167 % of control (endpoint: mean survival time, dose: 1.6 mg/kg/injection, schedule: Q01DX Z (oral), vehicle: methylcellulose (MC)); 178 % of control (endpoint: mean survival time, dose: 1.75 mg/kg/injection, schedule: Q07DX Z (oral), vehicle: saline); 102 % of control and 117 % of control (endpoint: mean survival time, dose: 1.8 mg/kg/injection, schedule: Q01DX Z (oral), vehicle: carboxymethylcellulose (CMC)). In addition, the T/C runs as follows: (endpoint: mean survival time, dose: 2.0 mg/kg/injection, schedule: Q01DX009 (ip), vehicle: saline) 219 % of control and 317 % of control and 319 % of control; (endpoint: mean survival time, dose: 2.0 mg/kg/injection, schedule: Q01DX010 (iv), vehicle: saline) 123 % of control; (endpoint: mean survival time, dose: 3.5 mg/kg/injection, schedule: Q01DX Z (oral), vehicle: carboxymethylcellulose (CMC)) 114 % of control; (endpoint: mean survival time, dose: 3.5 mg/kg/injection, schedule: Q07DX Z (oral), vehicle: saline) 266 % of control; (endpoint: mean survival time, dose: 3.6 mg/kg/injection, schedule: Q01DX001 (ip), vehicle: saline) 239 % of control and 271 % of control and 91 % of control; (endpoint: mean survival time, dose: 4.0 mg/kg/injection, schedule: Q01DX009 (ip), vehicle: saline) 111 % of control and 113 % of control. Also, the T/C is 194 % of control (endpoint: mean survival time, dose: 7.0 mg/kg/injection, schedule: Q01DX Z (oral), vehicle: carboxymethylcellulose (CMC)); 265 % of control and 303 % of control (endpoint: mean survival time, dose: 7.2 mg/kg/injection, schedule: Q01DX001 (ip), vehicle: saline); 111 % of control (endpoint: mean survival time, dose: 14.0 mg/kg/injection, schedule: Q01DX Z (oral), vehicle: carboxymethylcellulose (CMC)); 101 % of control (endpoint: mean survival time, dose: 25.0 micrograms/kg/injection, schedule: Q01DX Z (oral), vehicle: steriod suspending solution); 104 % of control (endpoint: mean survival time, dose: 50.0 micrograms/kg/injection, schedule: Q01DX Z (oral), vehicle: steriod suspending solution); 115 % of control (endpoint: mean survival time, dose: 100.0 micrograms/kg/injection, schedule: Q01DX Z (oral), vehicle: steriod suspending solution). For the same molecule, the T/C by setting is: (endpoint: mean survival time, dose: 110.0 micrograms/kg/injection, schedule: Q01DX Z (sc), vehicle: steriod suspending solution) 102 % of control; (endpoint: mean survival time, dose: 200.0 micrograms/kg/injection, schedule: Q01DX Z (oral), vehicle: steriod suspending solution) 165 % of control; (endpoint: mean survival time, dose: 220.0 micrograms/kg/injection, schedule: Q01DX Z (sc), vehicle: steriod suspending solution) 105 % of control; (endpoint: mean survival time, dose: 450.0 micrograms/kg/injection, schedule: Q01DX Z (sc), vehicle: steriod suspending solution) 124 % of control; (endpoint: median survival time, dose: 0.5 mg/kg/injection, schedule: Q01DX009 (ip), vehicle: saline) 162 % of control; (endpoint: median survival time, dose: 1.0 mg/kg/injection, schedule: Q01DX009 (ip), vehicle: saline) 206 % of control. Besides, the T/C was 181 % of control (endpoint: median survival time, dose: 2.0 mg/kg/injection, schedule: Q01DX009 (ip), vehicle: saline) and 112 % of control (endpoint: median survival time, dose: 4.0 mg/kg/injection, schedule: Q01DX009 (ip), vehicle: saline).

As for `OC1CCCC23CCC12CC3` (centres undefined), the T/C reads like this: (endpoint: mean survival time, dose: 50.0 mg/kg/injection, schedule: Q01DX001 (ip), vehicle: saline with Tween-80) 101 % of control; (endpoint: mean survival time, dose: 100.0 mg/kg/injection, schedule: Q01DX001 (ip), vehicle: saline with Tween-80) 99 % of control; (endpoint: mean survival time, dose: 200.0 mg/kg/injection, schedule: Q01DX001 (ip), vehicle: saline with Tween-80) 96 % of control.

For the molecule `CCOC(=O)C(=O)CC(=O)/C=C/c1ccccc1`, the T/C is, setting by setting: (endpoint: mean survival time, dose: 100.0 mg/kg/injection, schedule: Q01DX009 (ip), vehicle: saline with Tween-80) 96 % of control; (endpoint: mean survival time, dose: 100.0 mg/kg/injection, schedule: Q04DX003 (ip), vehicle: Klucel (hydroxypropylcellulose) (HPC)) 101 % of control; (endpoint: mean survival time, dose: 200.0 mg/kg/injection, schedule: Q01DX009 (ip), vehicle: saline with Tween-80) 101 % of control; (endpoint: mean survival time, dose: 200.0 mg/kg/injection, schedule: Q04DX003 (ip), vehicle: Klucel (hydroxypropylcellulose) (HPC)) 98 % of control; (endpoint: mean survival time, dose: 400.0 mg/kg/injection, schedule: Q01DX009 (ip), vehicle: saline with Tween-80) 98 % of control; (endpoint: mean survival time, dose: 400.0 mg/kg/injection, schedule: Q04DX003 (ip), vehicle: Klucel (hydroxypropylcellulose) (HPC)) 101 % of control.

Take `COc1ccc(CCBr)cc1`: the T/C (endpoint: mean survival time, dose: 100.0 mg/kg/injection, schedule: Q01DX009 (ip), vehicle: Klucel (hydroxypropylcellulose) (HPC)) is 97 % of control; the T/C (endpoint: mean survival time, dose: 200.0 mg/kg/injection, schedule: Q01DX009 (ip), vehicle: Klucel (hydroxypropylcellulose) (HPC)) was 97 % of control; the T/C (endpoint: mean survival time, dose: 400.0 mg/kg/injection, schedule: Q01DX009 (ip), vehicle: Klucel (hydroxypropylcellulose) (HPC)) is 95 % of control.

Take `CCOC(=O)C(c1ccccc1)C(NC(C)=O)(C(=O)OCC)C(=O)OCC` (centres undefined): the T/C by setting is: under setting [1], 114 % of control; under setting [2], 104 % of control; under setting [3], 93 % of control.

For the molecule `COC(=O)C1(C)CCCC2c3cc4c(cc3CCC21)C(=O)CC(C)O4` (centres undefined), the T/C (endpoint: mean survival time, dose: 400.0 mg/kg/injection, schedule: Q01DX001 (ip), vehicle: carboxymethylcellulose (CMC)) was 86 % of control.

As for `CCCCNC(c1ccc(C[N+]2(C)CCCC2)cc1)C(Cl)(Cl)Cl` (centres undefined), the T/C was 95 % of control (endpoint: mean survival time, dose: 10.0 mg/kg/injection, schedule: Q01DX001 (ip), vehicle: saline) and 95 % of control (endpoint: mean survival time, dose: 20.0 mg/kg/injection, schedule: Q01DX001 (ip), vehicle: saline).

Take `COC(=N)c1cccc(O)c1`: the T/C (endpoint: mean survival time, dose: 100.0 mg/kg/injection, schedule: Q01DX009 (ip), vehicle: saline) is 99 % of control; the T/C (endpoint: mean survival time, dose: 200.0 mg/kg/injection, schedule: Q01DX009 (ip), vehicle: saline) is 97 % of control; the T/C (endpoint: mean survival time, dose: 400.0 mg/kg/injection, schedule: Q01DX009 (ip), vehicle: saline) is 99 % of control.

Consider `Cc1ccc(-n2ccnc2)c(N=Cc2ccc(N(CCCl)CCCl)cc2C)c1`, for which the T/C reads like this: under setting [1], 98 % of control; under setting [2], 102 % of control; under setting [3], 124 % of control.
